Where two headings read alike, the source gives them in different places.

The values that follow come from patent US11161830B2, “4-pyridone compound or salt thereof, and pharmaceutical composition and formulation including same” (priority 2017, dated 2021).

For the assay, the system named is HBV (genotype CAT). Put plainly: Test Example 2-2: anti-HBV assay in PXB-cells (fresh human hepatocytes). Type of assay: cell-based. Conditions: Hepatitis B virus, Hepatocyte. The method, then:
Using fresh human hepatocytes (PXB-cells, manufactured by PhenixBio Co., Ltd.) collected from a PXB mouse (a chimeric mouse with human hepatocytes), the anti-HBV activity of the representative compounds was evaluated in the following procedure.
The following was used as a medium:
DMEM (manufactured by Sigma)+0.25 μg/mL insulin (manufactured by Wako)+1% penicillin/streptomycin. (manufactured by Sigma)+20 mmol/L HEPES (manufactured by Sigma)+15 μg/mL L-proline (manufactured by Sigma)+50 nmol/L dexamethasone (manufactured by Sigma)+5 ng/mL EGF (manufactured by Peprotech)+0.1 mmol/L ascorbic acid 2-phosphate (manufactured by Wako)+10% FBS+2% DMSO
Each of the test compounds) was further added to the medium to prepare a test solution containing each of the test compounds at various concentrations.
(1) PXB-cells seeded at a seeding density of 2.1×10^5 cells/cm^2 in a 96-well microliter plate were incubated in a 5% CO2 incubator at 37° C. until a day on which the cells were infected.
(2) A HBV (genotype CAT) prepared by transfecting an HBV plasmid into an HepG2 cell was suspended in the medium containing 4% PEG-8000, and added to the plate of (1) at about 30 copies/cell such that the PXB cells were infected (100 μL/well), and the plate was incubated in a 5% CO2 incubator at 37° C. for 1 day.
(3) The culture supernatant on day 1 post infection was removed and the cells were washed three times with DMEM containing 10% FBS and 1% penicillin/streptomycin. Then, the medium was added to the plate (100 μL/well) and the plate was incubated in a 5% CO2 incubator at 37° C. for 1 day.
(4) The culture supernatant on day 2 post infection was removed and the cells were washed three times with DMEM containing 10% FBS and 1% penicillin/streptomycin. Then, the medium was added to the plate (100 μL/well) and the plate was incubated in a 5% CO2 incubator at 37° C. for 5 days.
(5) The culture supernatant on day 7 post infection was removed, the medium was added to the plate (100 μL/well), and the plate was incubated in a 5% CO2 incubator at 37° C. for 5 days.
(6) The culture supernatant on day 12 post infection was removed, the medium was added to the plate (100 μL/well), and the plate was incubated in a 5% CO2 incubator at 37° C. for 5 days.
(7) The culture supernatant on day 17 post infection was removed, the test solution was added to the plate (100 μL/well), and the plate was incubated in a 5% CO2 incubator at 37° C. for 5 days. As a control without the compound added, the medium was added to the plate (100 μL/well) and the plate was incubated in a 5% CO2 incubator at 37° C. for 5 days.
(8) The culture supernatant on day 22 post infection was removed, the test solution was added to the plate (100 μL/well), and the plate was incubated in a 5% CO2 incubator at 37° C. for 5 days. As a control without the compound added, the medium was added to the plate (100 μL/well) and the plate was incubated in a 5% CO2 incubator at 37° C. for 5 days.
(9) The culture supernatant on day 27 post infection was removed, the test solution was added to the plate (100 μL/well), and the plate was incubated in a 5% CO2 incubator at 37° C. for 5 days. As a control without the compound added, the medium was added to the plate (100 μL/well) and the plate was incubated in a 5% CO2 incubator at 37° C. for 5 days.
(10) The culture supernatant on day 32 post infection was collected.
(11) The collected culture supernatant on day 32 post infection was treated with a mixture of Buffer AL (manufactured by QIAGEN) and Proteinase K (manufactured by Invitrogen). The amount of HBV-DNA in the obtained solution was absolutely quantified by a real-time PCR method. In addition, the amount of HBsAg in the culture supernatant was absolutely quantified by chemiluminescent enzyme immunoassay using Lumipulse (registered trademark) HBsAg-HQ (manufactured by Fujirebio Inc.). A relative viral load (%) with respect to a control without the compound added was each calculated. […]

[1] abbreviates: read-out: IC50 HBV-DNA, PXB-cells infected with HBV genotype CAT, culture supernatant on day 32 post infection.
[2] abbreviates: read-out: IC50 HBsAg, PXB-cells infected with HBV genotype CAT, culture supernatant on day 32 post infection.

Broadly, the IC50 is the concentration that gives 50% inhibition. For the compound `CN(C)[C@H]1CCN(c2nc3ccc(-n4cc(C(=O)O)c(=O)cc4-c4ccc(N5CCCC5)cc4)cc3s2)C1` [Example 17-1, (S)-1-(2-(3-(dimethylamino)pyrrolidin-1-yl)benzo[d]thiazol-6-yl)-4-oxo-6-(4-(pyrrolidin-1-yl)phenyl)-1,4-dihydropyridine-3-carboxylic acid], the IC50 is under 500 nM under setting [1] and under 500 nM under setting [2].

For `CN(C)[C@@H]1CCN(c2nc3ccc(-n4cc(C(=O)O)c(=O)cc4-c4ccc(N5CCCC5)cc4)cc3s2)C1` [Example 17-2, (R)-1-(2-(3-(dimethylamino)pyrrolidin-1-yl)benzo[d]thiazol-6-yl)-4-oxo-6-(4-(pyrrolidin-1-yl)phenyl)-1,4-dihydropyridine-3-carboxylic acid], the IC50 by setting is: under setting [1], under 500 nM; under setting [2], under 500 nM.

On to `CO[C@H]1CCN(c2nc3ccc(-n4cc(C(=O)O)c(=O)cc4-c4ccc(N5CCCC5)cc4)cc3s2)C1` [Example 17-3, (S)-1-(2-(3-methoxypyrrolidin-1-yl)benzo[d]thiazol-6-yl)-4-oxo-6-(4-(pyrrolidin-1-yl)phenyl)-1,4-dihydropyridine-3-carboxylic acid], for which the IC50 under setting [1] was under 500 nM and the IC50 under setting [2] was under 500 nM.

Turning to `COC1CN(c2nc3ccc(-n4cc(C(=O)O)c(=O)cc4-c4ccc5c(c4)OC[C@@H]4CCCN54)cc3s2)C1` [Example 18-2, (S)-1-(2-(3-methoxyazetidin-1-yl)benzo[d]thiazol-6-yl)-4-oxo-6-(2,3,3a,4-tetrahydro-1H-benzo[b]pyrrolo[1,2-d][1,4]oxazin-7-yl)-1,4-dihydropyridine-3-carboxylic acid], the IC50 is, setting by setting: under setting [1], under 500 nM; under setting [2], under 500 nM.

On to `COCCO[C@@H]1CCN(c2ccc(-c3cc(=O)c(C(=O)O)cn3-c3ccc4nc(N5CCOCC5)sc4c3)cc2)C1` [Example 19-1, (R)-6-(4-(3-(2-methoxyethoxy)pyrrolidin-1-yl)phenyl)-1-(2-morpholinobenzo[d]thiazol-6-yl)-4-oxo-1,4-dihydropyridine-3-carboxylic acid], for which the IC50 reads like this: under setting [1], under 500 nM; under setting [2], under 500 nM.

As for `CO[C@@H]1CCN(c2ccc(-c3cc(=O)c(C(=O)O)cn3-c3ccc4nc(N5CCOCC5)sc4c3)cc2F)C1` [Example 20-1, (R)-6-(3-fluoro-4-(3-methoxypyrrolidin-1-yl)phenyl)-1-(2-morpholinobenzo[d]thiazol-6-yl)-4-oxo-1,4-dihydropyridine-3-carboxylic acid], the IC50 was under 500 nM under setting [1] and under 500 nM under setting [2].
